Data set [1] can be described thus: Stability test of NAD (recovery test of NAD added to human pooled serum). It is filed as in vitro ADME. Here is the method: NAD was added to 2250 μL of human pooled serum to make 50 μmol/L and incubated at refrigeration, 25° C. and 37° C. The NAD concentrations in serum were measured at 1, 2, and 19 hours after the start of incubation.
The NAD concentration of the sample (i.e., serum) was measured by the following procedure,
(§1) Three times the volume of 0.4 M trichloroacetic acid solution was added to the collected sample, mixed, and placed for 10 minutes under a static condition at room temperature. The mixture was then centrifuged, and the supernatant was collected as an NAD extract.
(§2) NAD in the extract was measured using a 7180 type Hitachi automatic analyzer (manufactured by Hitachi High-Tech Corporation). The measurement was performed by setting the first test solution (comprising a phosphate buffer (pH 7.0), 0.6 mM WST-8 and 1.7 U/mL glucose dehydrogenase (GLUCDH “Amano” 2 manufactured by Amano Enzyme Inc.) and the second test solution (comprising a phosphate buffer (pH 7.8), 320 mM D-glucose and 15 U/mL diaphorase (No. 46445003 manufactured by Oriental Yeast Co., Ltd.) using the measurement parameters as follows. • Analysis method . . . Rate A • Measurement wavelength (sub/main) . . . 600 nm/450 nm • Reaction duration . . . 10 minutes • Photometric points 27 to 34 • Sample solution (NAD extract solution) . . . 2 μL • R1 reagent . . . 120 μL • R2 reagent . . . 40 μL
(§3) That is, 2 AL of NAD extract and 120 μL of the first test solution were mixed and incubated at 37° C. for 4.5 min (photometric point 1 to 16), and 40 μL of the second test solution was added to start the reaction (photometric point 17). The value of an absorbance change per minute (ΔAbs/min) was calculated by subtracting an absorbance of water (blank) at the same photometric point from the absorbance value of the measured sample at 8 to 10 minutes (photometric point 27 to 34) after the start of reaction.
(§4) The NAD concentration of the sample was calculated from the calibration curve (the NAD concentration−the increase rate of absorbance (ΔAbs/min)) that was obtained beforehand by measuring multiple NAD solutions at predetermined concentrations.
FIG. 1 is a graph illustrating a time-course change of relative values (%) of the NAD concentration in serum under each incubation condition when the concentration at the time of NAD addition (0 hour) is set as 100%. When stored at 25° C. and 37° C., the NAD concentrations reached almost 0% within two hours.

The conditions of data set [2]: after collection, suspended in a buffer solution for extraction, cooled in ice; cited from earlier work.
Data set [3] in a line: Stabilizing study of NAD in blood using nicotinamide and NR. Conditions: rat whole blood, overnight at 25° C. How it is done:
as §1, §2, §3, §4
Whole blood was collected from SD retired rats using EDTA-filled blood collection tubes, PBS (pH 6.0) comprising nicotinamide and NR at 10 times the concentration shown in Table 2 was prepared as a 10× stabilizer for each. 450 μL of whole blood was transferred to a 1.5-mL centrifuge tube, and 50 μL of a 10× stabilizer for each was added and mixed. NAD was added to each tube to make 100 µM and used as a measurement sample.
The NAD extraction and the NAD measurement were performed on each measurement sample after being placed overnight under a static condition at 25° C., in the same manner according to Example 1. The relative value (%) of NAD concentration of each measured sample was calculated, wherein the concentration at the time of NAD addition (0 hour) was set as 100%. […] It was confirmed that the amount of remaining NAD became higher as the amount of nicotinamide and NR increased.

A short description of data set [4]: Stabilizing study of NAD in blood using NMN and NR. As to conditions: rat whole blood, overnight at 25° C.
Description: Whole blood was collected from SD retired rats using EDTA-filled blood collection tubes. PBS (pH 6.0) comprising NMN and NR at 10 times the concentration shown in Table 3 was prepared as a 10× stabilizer for each. 450 μL of whole blood was transferred to a 1.5-mL centrifuge tube, and 50 μL of 10× stabilizer for each was added and mixed. NAD was added to each tube to make 100 µM and used as a measurement sample.
The NAD extraction and the NAD measurement were performed on each measurement sample after being placed overnight under a static condition overnight at 25° C., in the same manner according to Example 1. The relative value (%) of NAD concentration of each measured sample was calculated, wherein the concentration at the time of NAD addition (0 hour) was set as 100%.
A short description of data set [5]: Stabilizing study of NAD in blood using nicotinamide and NMN. Conditions: rat whole blood, overnight at 25° C. How it is done:
as §1, §2, §3, §4
Whole blood was collected from SD retired rats using EDTA-filled blood collection tubes. PBS (pH 6.0) comprising nicotinamide and NMN at 10 times the concentration shown in Table 1 was prepared as a 10× stabilizer for each. 450 μL of whole blood was transferred to a 1.5-mL centrifuge tube, and 50 μL of a 10× stabilizer for each was added and mixed. NAD was added to each tube to make 100 µM and used as a measurement sample.
The NAD extraction and the NAD measurement were performed on each measurement sample after being placed overnight under a static condition at 25° C., in the same manner according to Example 1. The relative value (%) of NAD concentration of each measured sample was calculated, wherein the concentration at the time of NAD addition (0 hour) was set as 100%. […] It was confirmed that the amount of remaining NAD became higher as the amount of nicotinamide and NMN increased.

With `NC(=O)c1ccc[n+]([C@@H]2O[C@H](COP(=O)([O-])OP(=O)(O)OC[C@H]3O[C@@H](n4cnc5c(N)ncnc54)[C@H](O)[C@@H]3O)[C@@H](O)[C@H]2O)c1` [NAD, nicotinamide adenine dinucleotide], the “relative value (%) of NAD concentration in serum (0 hour = 100%)” value in data set [1] (stored at 25° C., within two hours) is listed as about 0%; in data set [1] (stored at 37° C., within two hours), about 0%; in data set [1] (stored at refrigeration, within 20 hours), about 0%. Besides, the “NAD concentration in serum relative to 0 hour” value in data set [1] (stored at refrigeration, within two hours) was “reduced by about half”. The “time for which a blood sample for NAD measurement is stable” value in data set [2] is 5 h.

For `NC(=O)c1ccc[n+]([C@@H]2O[C@H](CO)[C@@H](O)[C@H]2O)c1` [NR, nicotinamide riboside], the “relative value (%) of NAD concentration (0 hour = 100%)” value in data set [3] (0 mM nicotinamide, 3 mM NR) came to 7.5%; in data set [3] (0 mM nicotinamide, 10 mM NR) it was 49.7%; in data set [3] (0 mM nicotinamide, 20 mM NR), 64.8%; in data set [4] (20 mM NR, 0 mM NMN) it was 62.9%; in data set [4] (50 mM NR, 0 mM NMN), 71.2%; in data set [4] (100 mM NR, 0 mM NMN), 77.7%.

Take `NC(=O)c1cccnc1` [Nicotinamide, nicotinamide]: the “relative value (%) of NAD concentration (0 hour = 100%)” value in data set [3] (50 mM nicotinamide, 0 mM NR) was 7.8%; in data set [3] (100 mM nicotinamide, 0 mM NR), 8.7%; in data set [3] (200 mM nicotinamide, 0 mM NR), 10.8%; in data set [5] (50 mM nicotinamide, 0 mM NMN) it was 7.4%; in data set [5] (100 mM nicotinamide, 0 mM NMN) it was 6.6%; in data set [5] (200 mM nicotinamide, 0 mM NMN) it was 13.7%.

As to nicotinamide mononucleotide [NMN], the “relative value (%) of NAD concentration (0 hour = 100%)” value in data set [4] (0 mM NR, 20 mM NMN) came out at 29.1%; in data set [4] (0 mM NR, 50 mM NMN), 58.0%; in data set [4] (0 mM NR, 100 mM NMN), 89.6%; in data set [5] (0 mM nicotinamide, 3 mM NMN), 8.2%; in data set [5] (0 mM nicotinamide, 10 mM NMN) it was 16.1%; in data set [5] (0 mM nicotinamide, 20 mM NMN), 33.0%.

The values above are taken from patent US20250101486A1, “METHOD AND COMPOSITION FOR STABILISING NICOTINAMIDE ADENINE DINUCLEOTIDE” (ORIENTAL YEAST CO., LTD., priority 2022, published 2025).
